Reference: patent publication US20180289843A1, “COATING FOR METAL NANOPARTICLES” (AGENCY FOR SCIENCE, TECHNOLOGY AND RESEARCH, priority 2015, published 2018)
Where a SMILES comes first, the peptide text is derived from it. [ ]: non-standard residue; d: D form. The star is where a group is joined. pS = N[C@@H](COP(=O)(O)O)C(=O)O; Thr(ol) = C[C@@H](O)[C@H](N)CO; X1 = O=C(COP(=O)(O)O)*

Legend:
[1] = Normalized aggregation parameter (NAP) by UV-visible absorbance; format: physicochemical; conditions: single ligand shell
Method: UV-visible spectra were recorded at room temperature using a Molecular Probes (Oregon, USA) Spectramax 384-well spectrometer, using a 1 cm path length quartz cuvette, and a fixed slit width of 2 nrn. The spectrometer was calibrated daily using the machine's ‘Auto-Calibrate’ air calibration.
To allow the comparison of results from different ligand exchange experiments, the aggregation parameter (AP) was defined as follows: […]
A460 nm and A300 nm are absorbance values of solutions of nanoparticles at 460 nm and 300 nm, respectively. The empiric wavelength of 460 nm has been chosen to reflect the aggregated state of the nanoparticles. Aref460 nm and Aref300 nm are absorbance values of water at 460 nm and 300 nm. To allow comparison of results obtained with different ligand shells, this primary aggregation parameter was then normalized by dividing the aggregation parameter values of each experiment by the initial aggregation parameter value of the same experiment before the stability test. This provides a Normalized Aggregation Parameter (NAP). […] An increase of the NAP indicates the instability and eventually aggregation of the nanoparticles.

[2] = Electrolyte-induced aggregation stability test (NaCl, PBS) followed by UV-visible spectrometry; format: physicochemical; conditions: prepared in PBS and Tween 20, two days
Method: The stability of the nanoparticles was followed by UV-visible spectrometry. A decrease of absorbance indicates the aggregation of the nanoparticles. […] The four single peptide ligand shells were evaluated for their potential to stabilize the iron oxide nanoparticles against electrolyte-induced aggregation. The nanoparticles were mixing with a range of concentration of NaCl (0.1 mM to 1 M) at room temperature. The stability of the nanoparticles was followed by UV-visible spectrophotometry and the normalized aggregation parameters were determined. […] The aggregation of all nanoparticles were observed also in PBS buffer (with 100 mM NaCl) after few hours. […] This represents a promising result since the utilization of the peptide coated iron nanoparticles in vitro and in vivo are performed at 37° C. All the mixed peptide ligand shells providing sufficient yield of nanoparticles were evaluated for electrolyte-induced aggregation stability by mixing the nanoparticles with a range of concentration of NaCl (0.1 mM to 1 M) at room temperature. […] This represents again a promising results since the utilisation of the peptide coated iron nanoparticles in vitro and in vivo are performed at 37° C.

[3] = prepared using PBS and Tween 20

Q: Which “NAP (normalized aggregation parameter)” value ([1]; prepared using water only) does the source give for “PO3H2-O-CH2-CO-Gly-NH-PEG4-OH [Peptide S5]” here?
A: (1.21 ± 0.21)

Q: With H-[pS]VVV[Thr(ol)] [Peptide S13] as the molecule, how does the “NAP (normalized aggregation parameter)” value [1, 3] read?
A: 2.23 ± 0.34

Q: And the “NAP (normalized aggregation parameter)” value ([1]; prepared using water only)?
A: (1.23 ± 0.13)

Q: For `O=P(O)(O)SCCCCCCCCCCCOCCOCCOCCO` [Ligand L1, (HO)2-PO-S-C11-EG3-OH], which “NAP (normalized aggregation parameter)” value ([1]; prepared using water only) is on record?
A: (1.25 ± 0.08)

Q: With “PO3H2-O-CH2-CO-Ser(PO3H2)-NH-PEG4-ol [Peptide S8]” as the molecule, how does the “NAP (normalized aggregation parameter)” value ([1]; prepared using water only) read?
A: (1 ± 0.01)

Q: For “PO3H2-O-CH2-CO-Ser(PO3H2)-NH-PEG4-OH [Peptide S7]”, which “NAP (normalized aggregation parameter)” value [1, 3] is on record?
A: 1.33 ± 0.08

Q: And the “NAP (normalized aggregation parameter)” value ([1]; prepared using water only)?
A: (1 ± 0.02)

Q: With `CC(C)[C@H](NC(=O)[C@H](COP(=O)(O)O)NC(=O)COP(=O)(O)O)C(=O)N[C@H](C(=O)N[C@H](C(=O)N[C@H](CO)[C@@H](C)O)C(C)C)C(C)C` [Peptide S14, PO3H2-O-CH2-CO-Ser(PO3H2)-Val-Val-Val-Thr-ol] (X1-[pS]VVV[Thr(ol)]) as the molecule, how does the “Stability in PBS buffer at 37° C.” value ([2]; 37° C.) read?
A: same high stability

Q: What about the “Stability in 1 M NaCl” value ([2]; room temperature) of the same molecule?
A: high stability

Q: What about the “Stability in PBS buffer at room temperature” value ([2]; room temperature) of the same molecule?
A: high stability

Q: Which “NAP (normalized aggregation parameter)” value ([1]; prepared using water only) does the source give for `O=P(O)(O)SCCCCCCCCCCCOCCOCCOCCOCCOCCOCCO` [Ligand L2, (HO)2-PO-S-C11-EG6-OH] here?
A: (1.31 ± 0.04)
